Measured values: patent US20240101570A1 (AMGEN INC., priority 2020, published 2024)

System: HCT116 WT cells
Assay: HCT116 WT cell proliferation / viability (CellTiter-Glo, 6 days)
Assay type: cell-based
Settings: Homo sapiens, HCT-116, 144 h, HCT116 WT cells, 6 days, CellTiter-Glo; read-out: HCT-116 WT IC50
Protocol: (§1) HCT116 MTAP null and WT cells were seeded in 96-well tissue culture plates in RPMI 1640 media+10% fetal bovine serum. Plates were incubated overnight at 37° C. and 5% CO2. Cells were then treated with an 8- or 9-point serial dilution of compound, using a top concentration of 1, or 10 μM, 1:3 serial dilution steps and, a DMSO-only control. Cells were incubated in the presence of drug for 6 days. Effects on cell viability were measured with the CellTiter-Glo® Luminescent Cell Viability Assay (Promega) per manufacturer's recommendation. Assay plates were read on an EnVision™ Multilabel Reader using the Ultra-Sensitive luminescence module. IC50 values were calculated with GraphPad Prism v 5.01 using symmetrical sigmoidal dose-response least squares fit with Hill slope fixed to −1 and top constrain to 100% or GeneData Screener using a 4-parameter logistic model to fit dose response curves.
(§2) Alternatively, compounds could be assayed with a 384 well plate format:
(§3) Compounds were pre-spotted into 384 well plates with a 22-point serial dilution of compound, using a top concentration of 10 or 50 μM, 1:2 serial dilution steps and, a DMSO-only control. HCT116 MTAP null and WT cells were then seeded as above and after 6 days effects on cell viability were measured with the CellTiter-Glo® Luminescent Cell Viability Assay (Promega). Assay plates were read as above and IC50 values were calculated with GeneData Screener using a 4-parameter logistic model to fit dose response curves. The reported IC50 represents the value where the curve transits 50% of control.

Row | SMILES | IC50
1 | COCC(C)N(Cc1ccc(C(F)(F)F)nn1)C(=O)c1cc2c3c(c(N)nc2cn1)[C@@H](C)OC3 (mixture of isomers) [Example 314, (3R)-4-amino-N-((2R)-1-methoxy-2-propanyl)-3-methyl-N-((6-(trifluoromethyl)-3-pyridazinyl)methyl)-1,3-dihydrofuro[3,4-c][1,7]naphthyridine-8-carboxamide and (3R)-4-amino-N-((2S)-1-methoxy-2-propanyl)-3-methyl-N-((6-(trifluoromethyl)-3-pyridazinyl)methyl)-1,3-dihydrofuro[3,4-c][1,7]naphthyridine-8-carboxamide] | 15.2 µM
2 | COCC(C)N(Cc1ccc(C(F)(F)F)nn1)C(=O)c1cc2c3c(c(N)nc2cn1)COC3 (racemic) [Example 390, 4-amino-N-((2R)-1-methoxy-2-propanyl)-N-((6-(trifluoromethyl)-3-pyridazinyl)methyl)-1,3-dihydrofuro[3,4-c][1,7]naphthyridine-8-carboxamide and 4-amino-N-((2S)-1-methoxy-2-propanyl)-N-((6-(trifluoromethyl)-3-pyridazinyl)methyl)-1,3-dihydrofuro[3,4-c][1,7]naphthyridine-8-carboxamide] | 9.9 µM

Now from value to molecule:

Row | IC50 | SMILES
3 | 0.352 µM | COCC(C)N(Cc1ccc(C(F)(F)F)nn1)C(=O)c1ccc2nc(N)c3c(c2c1)CO[C@@H]3C (mixture of isomers) [Example 304, (3R)-4-amino-N-((2R)-1-methoxy-2-propanyl)-3-methyl-N-((6-(trifluoromethyl)-3-pyridazinyl)methyl)-1,3-dihydrofuro[3,4-c]quinoline-8-carboxamide and (3R)-4-amino-N-((2S)-1-methoxy-2-propanyl)-3-methyl-N-((6-(trifluoromethyl)-3-pyridazinyl)methyl)-1,3-dihydrofuro[3,4-c]quinoline-8-carboxamide]
4 | 0.574 µM | COCC(C)N(Cc1ccc(C(F)(F)F)nn1)C(=O)c1ccc2nc(N)c3c(c2c1)COC3 (racemic) [Example 303, 4-amino-N-((2R)-1-methoxy-2-propanyl)-N-((6-(trifluoromethyl)-3-pyridazinyl)methyl)-1,3-dihydrofuro[3,4-c]quinoline-8-carboxamide and 4-amino-N-((2S)-1-methoxy-2-propanyl)-N-((6-(trifluoromethyl)-3-pyridazinyl)methyl)-1,3-dihydrofuro[3,4-c]quinoline-8-carboxamide]

System: HCT116 MTAP null cells
Assay: HCT116 MTAP null cell proliferation / viability (CellTiter-Glo, 6 days)
Assay type: cell-based
Settings: HCT116-MTAP null, 144 h, HCT116 MTAP null cells, 6 days, CellTiter-Glo; read-out: HCT-116 MTAP null IC50
Protocol: as §1, §2, §3

Row | SMILES | IC50
5 | COCC(C)N(Cc1ccc(C(F)(F)F)nn1)C(=O)c1cc2c3c(c(N)nc2cn1)[C@@H](C)OC3 (mixture of isomers) [Example 314, (3R)-4-amino-N-((2R)-1-methoxy-2-propanyl)-3-methyl-N-((6-(trifluoromethyl)-3-pyridazinyl)methyl)-1,3-dihydrofuro[3,4-c][1,7]naphthyridine-8-carboxamide and (3R)-4-amino-N-((2S)-1-methoxy-2-propanyl)-3-methyl-N-((6-(trifluoromethyl)-3-pyridazinyl)methyl)-1,3-dihydrofuro[3,4-c][1,7]naphthyridine-8-carboxamide] | 254 nM
6 | COCC(C)N(Cc1ccc(C(F)(F)F)nn1)C(=O)c1cc2c3c(c(N)nc2cn1)COC3 (racemic) [Example 390, 4-amino-N-((2R)-1-methoxy-2-propanyl)-N-((6-(trifluoromethyl)-3-pyridazinyl)methyl)-1,3-dihydrofuro[3,4-c][1,7]naphthyridine-8-carboxamide and 4-amino-N-((2S)-1-methoxy-2-propanyl)-N-((6-(trifluoromethyl)-3-pyridazinyl)methyl)-1,3-dihydrofuro[3,4-c][1,7]naphthyridine-8-carboxamide] | 262 nM
7 | CC(C)N(Cc1ccc(Br)nn1)C(=O)c1ccc2nc(N)c3c(c2c1)COC3 [Example 335, 4-amino-N-((6-bromo-3-pyridazinyl)methyl)-N-(2-propanyl)-1,3-dihydrofuro[3,4-c]quinoline-8-carboxamide] | 361 nM
8 | CC(C)(C)CN(Cc1ccc(C(F)(F)F)cn1)C(=O)c1ccc2nc(N)c3c(c2c1)COC3 [Example 342, 4-amino-N-(2,2-dimethylpropyl)-N-((5-(trifluoromethyl)-2-pyridinyl)methyl)-1,3-dihydrofuro[3,4-c]quinoline-8-carboxamide] | 1310 nM
9 | CC1(N(Cc2ccc(C(F)(F)F)cn2)C(=O)c2cc3c4c(c(N)nc3cn2)COC4)CC1 [Example 699, 4-amino-N-(1-methylcyclopropyl)-N-((5-(trifluoromethyl)-2-pyridinyl)methyl)-1,3-dihydrofuro[3,4-c][1,7]naphthyridine-8-carboxamide] | 249 nM
10 | CC1OCc2c1c(N)nc1ccc(C(=O)N(Cc3ccc(C#N)cn3)C[C@H]3CC[C@H](O)CC3)cc21 (stereo partly drawn) [Example 894, 4-amino-N-((5-cyanopyridin-2-yl)methyl)-N-(((1r,4r)-4-hydroxycyclohexyl)methyl)-3-methyl-1,3-dihydrofuro[3,4-c]quinoline-8-carboxamide] | 180 nM
11 | CC1OCc2c1c(N)nc1ccc(C(=O)N(Cc3ccc(C(F)(F)F)cn3)C3CC3N)cc21 (stereo not drawn) [Example 906, 4-amino-N-(2-aminocyclopropyl)-3-methyl-N-((5-(trifluoromethyl)pyridin-2-yl)methyl)-1,3-dihydrofuro[3,4-c]quinoline-8-carboxamide] | 790 nM
12 | CC1OCc2c1c(N)nc1ccc(C(=O)N(CC3=CCCOC3)Cc3ccc(C#N)cn3)cc21 (stereo not drawn) [Example 912, 4-amino-N-((5-cyanopyridin-2-yl)methyl)-N-((5,6-dihydro-2H-pyran-3-yl)methyl)-3-methyl-1,3-dihydrofuro[3,4-c]quinoline-8-carboxamide] | 140 nM
13 | CC1OCc2c1c(N)nc1ccc(C(=O)N(Cc3ccc(C#N)cn3)Cc3cnc(N)s3)cc21 (stereo not drawn) [Example 914, 4-amino-N-((2-aminothiazol-5-yl)methyl)-N-((5-cyanopyridin-2-yl)methyl)-3-methyl-1,3-dihydrofuro[3,4-c]quinoline-8-carboxamide] | 200 nM
14 | CC1OCc2c1c(N)nc1ccc(C(=O)N(Cc3ccc(C(F)(F)F)cn3)C(C)C(C)O)cc21 (stereo not drawn) [Example 920, 4-amino-N-(3-hydroxybutan-2-yl)-3-methyl-N-((5-(trifluoromethyl)pyridin-2-yl)methyl)-1,3-dihydrofuro[3,4-c]quinoline-8-carboxamide] | 76 nM
15 | CC1OCc2c1c(N)nc1ccc(C(=O)N(Cc3ccc(C(F)(F)F)cn3)C3CCCC(O)C3)cc21 (stereo not drawn) [Example 921, 4-amino-N-(3-hydroxycyclohexyl)-3-methyl-N-((5-(trifluoromethyl)pyridin-2-yl)methyl)-1,3-dihydrofuro[3,4-c]quinoline-8-carboxamide] | 93 nM
16 | CC1OCc2c1c(N)nc1ccc(C(=O)N(Cc3ccc(C(F)(F)F)cn3)CC3CCOC3)cc21 (stereo not drawn) [Example 927, 4-amino-3-methyl-N-((tetrahydrofuran-3-yl)methyl)-N-((5-(trifluoromethyl)pyridin-2-yl)methyl)-1,3-dihydrofuro[3,4-c]quinoline-8-carboxamide] | 69 nM

Stronger by IC50, values ahead:

Row | IC50 | SMILES
17 | 56 nM | CC(O)CN(Cc1ccc(C(F)(F)F)cn1)C(=O)c1ccc2nc(N)c3c(c2c1)COC3C (stereo not drawn) [Example 923, 4-amino-N-(2-hydroxypropyl)-3-methyl-N-((5-(trifluoromethyl)pyridin-2-yl)methyl)-1,3-dihydrofuro[3,4-c]quinoline-8-carboxamide]
18 | 48 nM | CC1OCc2c1c(N)nc1ccc(C(=O)N(CCC3CC(O)C3)Cc3ccc(C(F)(F)F)cn3)cc21 (stereo not drawn) [Example 922, 4-amino-N-(2-(3-hydroxycyclobutyl)ethyl)-3-methyl-N-((5-(trifluoromethyl)pyridin-2-yl)methyl)-1,3-dihydrofuro[3,4-c]quinoline-8-carboxamide]
19 | 43 nM | CC(CO)CN(Cc1ccc(C(F)(F)F)cn1)C(=O)c1ccc2nc(N)c3c(c2c1)COC3C (stereo not drawn) [Example 924, 4-amino-N-(3-hydroxy-2-methylpropyl)-3-methyl-N-((5-(trifluoromethyl)pyridin-2-yl)methyl)-1,3-dihydrofuro[3,4-c]quinoline-8-carboxamide]
20 | 41 nM | CC1OCc2c1c(N)nc1ccc(C(=O)N(Cc3ccc(C(F)(F)F)cn3)C[C@H]3CC[C@H](O)CC3)cc21 (stereo partly drawn) [Example 893, 4-amino-N-(((1r,4r)-4-hydroxycyclohexyl)methyl)-3-methyl-N-((5-(trifluoromethyl)pyridin-2-yl)methyl)-1,3-dihydrofuro[3,4-c]quinoline-8-carboxamide]
21 | 40 nM | CC1OCc2c1c(N)nc1ccc(C(=O)N(Cc3ccc(C(F)(F)F)cn3)C(C)C3CCOCC3)cc21 (stereo not drawn) [Example 891, 4-amino-3-methyl-N-(1-(tetrahydro-2H-pyran-4-yl)ethyl)-N-((5-(trifluoromethyl)pyridin-2-yl)methyl)-1,3-dihydrofuro[3,4-c]quinoline-8-carboxamide]
22 | 39 nM | CC(C#N)CN(Cc1ccc(C(F)(F)F)cn1)C(=O)c1ccc2nc(N)c3c(c2c1)COC3C (stereo not drawn) [Example 928, 4-amino-N-(2-cyanopropyl)-3-methyl-N-((5-(trifluoromethyl)pyridin-2-yl)methyl)-1,3-dihydrofuro[3,4-c]quinoline-8-carboxamide]
23 | 35 nM | CC1OCc2c1c(N)nc1ccc(C(=O)N(Cc3ccc(C(F)(F)F)cn3)CC(O)C(F)(F)F)cc21 (stereo not drawn) [Example 925, 4-amino-3-methyl-N-(3,3,3-trifluoro-2-hydroxypropyl)-N-((5-(trifluoromethyl)pyridin-2-yl)methyl)-1,3-dihydrofuro[3,4-c]quinoline-8-carboxamide]
24 | 30 nM | CC1OCc2c1c(N)nc1ccc(C(=O)N(Cc3ccc(C(F)(F)F)cn3)Cc3ncn(C)n3)cc21 (stereo not drawn) [Example 926, 4-amino-3-methyl-N-((1-methyl-1H-1,2,4-triazol-3-yl)methyl)-N-((5-(trifluoromethyl)pyridin-2-yl)methyl)-1,3-dihydrofuro[3,4-c]quinoline-8-carboxamide]
25 | 26 nM | COCC(C)N(Cc1ccc(C(F)(F)F)nn1)C(=O)c1ccc2nc(N)c3c(c2c1)CO[C@@H]3C (mixture of isomers) [Example 304, (3R)-4-amino-N-((2R)-1-methoxy-2-propanyl)-3-methyl-N-((6-(trifluoromethyl)-3-pyridazinyl)methyl)-1,3-dihydrofuro[3,4-c]quinoline-8-carboxamide and (3R)-4-amino-N-((2S)-1-methoxy-2-propanyl)-3-methyl-N-((6-(trifluoromethyl)-3-pyridazinyl)methyl)-1,3-dihydrofuro[3,4-c]quinoline-8-carboxamide]
26 | 25 nM | CC(C)CN(Cc1ccc(C(F)(F)F)cn1)C(=O)c1ccc2nc(N)c3c(c2c1)COC3C (stereo not drawn) [Example 919, 4-amino-N-isobutyl-3-methyl-N-((5-(trifluoromethyl)pyridin-2-yl)methyl)-1,3-dihydrofuro[3,4-c]quinoline-8-carboxamide]
27 | 24 nM | COCC(C)N(Cc1ccc(C(F)(F)F)nn1)C(=O)c1ccc2nc(N)c3c(c2c1)COC3 (racemic) [Example 303, 4-amino-N-((2R)-1-methoxy-2-propanyl)-N-((6-(trifluoromethyl)-3-pyridazinyl)methyl)-1,3-dihydrofuro[3,4-c]quinoline-8-carboxamide and 4-amino-N-((2S)-1-methoxy-2-propanyl)-N-((6-(trifluoromethyl)-3-pyridazinyl)methyl)-1,3-dihydrofuro[3,4-c]quinoline-8-carboxamide]
